Assay [1] concerns the target EML4-ALK (Homo sapiens) (UniProt Q9UM73+Q9HC35). Kind of assay: Selectivity interaction (ProQinase) EUB0000171b ALK. In kind it is protein assay. To be noted: at 1 µM.
Assay [2] addresses T1, Bone morphogenetic protein receptor type-2 (Homo sapiens) (UniProt Q13873).
T1 sequence (whole entry): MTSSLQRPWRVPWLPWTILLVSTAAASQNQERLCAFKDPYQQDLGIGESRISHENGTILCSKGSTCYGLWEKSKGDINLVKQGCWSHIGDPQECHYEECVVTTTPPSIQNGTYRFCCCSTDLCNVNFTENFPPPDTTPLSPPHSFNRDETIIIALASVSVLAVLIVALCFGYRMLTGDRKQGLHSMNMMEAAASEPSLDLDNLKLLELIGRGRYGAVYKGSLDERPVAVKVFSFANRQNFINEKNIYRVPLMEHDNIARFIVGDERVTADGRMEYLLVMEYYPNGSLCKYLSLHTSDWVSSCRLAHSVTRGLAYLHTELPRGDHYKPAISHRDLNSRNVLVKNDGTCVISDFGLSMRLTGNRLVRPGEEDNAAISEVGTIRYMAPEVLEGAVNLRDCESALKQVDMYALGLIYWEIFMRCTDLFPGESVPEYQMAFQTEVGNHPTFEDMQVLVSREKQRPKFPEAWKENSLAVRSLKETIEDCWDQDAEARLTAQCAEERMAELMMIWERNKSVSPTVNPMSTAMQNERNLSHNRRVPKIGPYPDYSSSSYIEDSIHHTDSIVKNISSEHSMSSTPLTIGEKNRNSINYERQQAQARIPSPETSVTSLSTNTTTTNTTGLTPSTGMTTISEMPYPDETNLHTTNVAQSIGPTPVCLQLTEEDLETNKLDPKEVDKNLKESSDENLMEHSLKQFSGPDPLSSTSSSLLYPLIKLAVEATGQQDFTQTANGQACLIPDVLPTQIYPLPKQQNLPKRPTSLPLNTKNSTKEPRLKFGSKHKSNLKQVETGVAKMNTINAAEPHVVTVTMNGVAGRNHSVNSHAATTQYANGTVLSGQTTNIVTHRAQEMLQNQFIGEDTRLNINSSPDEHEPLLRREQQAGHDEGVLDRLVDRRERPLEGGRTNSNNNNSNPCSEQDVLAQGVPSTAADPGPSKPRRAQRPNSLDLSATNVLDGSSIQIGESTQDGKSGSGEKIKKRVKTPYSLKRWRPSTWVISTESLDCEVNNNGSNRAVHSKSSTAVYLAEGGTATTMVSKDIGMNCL
Kind of assay: Selectivity interaction (Ambit KINOMEscan and KiNATiv profiling in Jurkat cells) EUB0000090b BMPR2. To be noted: at 1 µM. The format is cell-based.

In assay [3] the target is T2, Serine/threonine-protein kinase STK11 (Homo sapiens) (UniProt Q15831).
T2 sequence (whole entry): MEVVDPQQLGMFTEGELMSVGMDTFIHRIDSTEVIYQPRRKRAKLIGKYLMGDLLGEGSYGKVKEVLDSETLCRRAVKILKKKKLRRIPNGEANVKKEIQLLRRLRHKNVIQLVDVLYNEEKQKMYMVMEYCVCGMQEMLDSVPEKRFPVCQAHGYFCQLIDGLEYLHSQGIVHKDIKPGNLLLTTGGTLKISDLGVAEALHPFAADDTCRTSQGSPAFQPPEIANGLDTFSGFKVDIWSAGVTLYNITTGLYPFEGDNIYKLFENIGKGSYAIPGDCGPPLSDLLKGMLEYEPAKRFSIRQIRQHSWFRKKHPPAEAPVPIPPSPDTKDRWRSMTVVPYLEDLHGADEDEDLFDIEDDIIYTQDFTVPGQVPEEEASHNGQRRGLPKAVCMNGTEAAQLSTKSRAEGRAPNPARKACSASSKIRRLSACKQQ
Put plainly: Selectivity interaction (KinomeScan (DiscoverX)) EUB0001049a STK11. To be noted: at 1 µM.

The target of assay [4] is Receptor-type tyrosine-protein kinase FLT3 (Homo sapiens) (UniProt P36888). Put plainly: Selectivity interaction (KinomeScan (DiscoverX)) EUB0000695a FLT3. To be noted: at 100 nM.
Assay [5] addresses Vascular endothelial growth factor receptor 1 (Homo sapiens) (UniProt P17948). Put plainly: Selectivity interaction (SelectScreen profiling (Invitrogen)) EUB0000607a FLT1. The following applies: at 2 µM.
Assay [6] addresses Calcium/calmodulin-dependent protein kinase type 1G (Homo sapiens) (UniProt Q96NX5). Put plainly: Selectivity interaction (KinomeScan (DiscoverX)) EUB0000607a CAMK1G. The following applies: at 10 µM.

Calcium/calmodulin-dependent protein kinase type 1G (Homo sapiens), sequence (Q96NX5 whole entry): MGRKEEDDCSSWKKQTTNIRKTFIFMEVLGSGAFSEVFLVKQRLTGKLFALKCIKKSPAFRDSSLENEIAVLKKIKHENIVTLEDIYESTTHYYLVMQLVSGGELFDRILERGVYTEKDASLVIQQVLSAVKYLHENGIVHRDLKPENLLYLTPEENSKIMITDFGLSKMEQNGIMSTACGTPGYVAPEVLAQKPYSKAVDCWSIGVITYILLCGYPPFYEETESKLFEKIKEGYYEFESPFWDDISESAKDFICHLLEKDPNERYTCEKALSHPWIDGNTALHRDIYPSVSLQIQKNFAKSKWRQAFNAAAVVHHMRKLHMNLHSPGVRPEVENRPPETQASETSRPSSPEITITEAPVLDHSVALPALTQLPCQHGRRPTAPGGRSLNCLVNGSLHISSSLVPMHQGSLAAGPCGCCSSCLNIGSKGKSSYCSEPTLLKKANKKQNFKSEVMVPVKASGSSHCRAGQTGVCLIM
EML4-ALK (Homo sapiens), sequence (Q9HC35 whole entry partner): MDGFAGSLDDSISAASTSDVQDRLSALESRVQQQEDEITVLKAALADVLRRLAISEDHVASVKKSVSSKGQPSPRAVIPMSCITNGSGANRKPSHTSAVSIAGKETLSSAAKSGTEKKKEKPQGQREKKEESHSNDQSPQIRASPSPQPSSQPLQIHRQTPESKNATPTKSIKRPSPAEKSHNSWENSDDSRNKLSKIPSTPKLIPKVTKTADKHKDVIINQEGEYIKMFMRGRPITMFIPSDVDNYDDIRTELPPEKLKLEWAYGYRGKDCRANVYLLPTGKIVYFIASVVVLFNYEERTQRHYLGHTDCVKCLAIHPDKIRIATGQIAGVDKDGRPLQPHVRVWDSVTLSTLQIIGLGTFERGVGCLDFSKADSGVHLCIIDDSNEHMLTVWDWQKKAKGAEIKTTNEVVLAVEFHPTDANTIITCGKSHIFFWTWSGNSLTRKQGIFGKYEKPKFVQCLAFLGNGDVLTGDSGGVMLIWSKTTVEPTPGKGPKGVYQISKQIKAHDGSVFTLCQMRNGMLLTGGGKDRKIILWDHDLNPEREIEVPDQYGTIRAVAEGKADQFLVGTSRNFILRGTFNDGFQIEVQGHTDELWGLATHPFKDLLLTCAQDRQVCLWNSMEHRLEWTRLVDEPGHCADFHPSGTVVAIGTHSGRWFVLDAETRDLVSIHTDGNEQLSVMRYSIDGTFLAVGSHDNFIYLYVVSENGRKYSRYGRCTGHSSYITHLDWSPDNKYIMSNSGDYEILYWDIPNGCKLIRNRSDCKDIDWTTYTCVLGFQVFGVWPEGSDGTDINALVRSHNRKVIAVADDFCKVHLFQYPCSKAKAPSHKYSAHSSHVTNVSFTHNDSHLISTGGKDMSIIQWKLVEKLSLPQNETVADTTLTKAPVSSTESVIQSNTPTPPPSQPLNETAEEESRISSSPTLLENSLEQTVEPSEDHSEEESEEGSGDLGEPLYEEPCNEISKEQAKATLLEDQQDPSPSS
EML4-ALK (Homo sapiens), sequence (Q9UM73 19-1620 limits assumed): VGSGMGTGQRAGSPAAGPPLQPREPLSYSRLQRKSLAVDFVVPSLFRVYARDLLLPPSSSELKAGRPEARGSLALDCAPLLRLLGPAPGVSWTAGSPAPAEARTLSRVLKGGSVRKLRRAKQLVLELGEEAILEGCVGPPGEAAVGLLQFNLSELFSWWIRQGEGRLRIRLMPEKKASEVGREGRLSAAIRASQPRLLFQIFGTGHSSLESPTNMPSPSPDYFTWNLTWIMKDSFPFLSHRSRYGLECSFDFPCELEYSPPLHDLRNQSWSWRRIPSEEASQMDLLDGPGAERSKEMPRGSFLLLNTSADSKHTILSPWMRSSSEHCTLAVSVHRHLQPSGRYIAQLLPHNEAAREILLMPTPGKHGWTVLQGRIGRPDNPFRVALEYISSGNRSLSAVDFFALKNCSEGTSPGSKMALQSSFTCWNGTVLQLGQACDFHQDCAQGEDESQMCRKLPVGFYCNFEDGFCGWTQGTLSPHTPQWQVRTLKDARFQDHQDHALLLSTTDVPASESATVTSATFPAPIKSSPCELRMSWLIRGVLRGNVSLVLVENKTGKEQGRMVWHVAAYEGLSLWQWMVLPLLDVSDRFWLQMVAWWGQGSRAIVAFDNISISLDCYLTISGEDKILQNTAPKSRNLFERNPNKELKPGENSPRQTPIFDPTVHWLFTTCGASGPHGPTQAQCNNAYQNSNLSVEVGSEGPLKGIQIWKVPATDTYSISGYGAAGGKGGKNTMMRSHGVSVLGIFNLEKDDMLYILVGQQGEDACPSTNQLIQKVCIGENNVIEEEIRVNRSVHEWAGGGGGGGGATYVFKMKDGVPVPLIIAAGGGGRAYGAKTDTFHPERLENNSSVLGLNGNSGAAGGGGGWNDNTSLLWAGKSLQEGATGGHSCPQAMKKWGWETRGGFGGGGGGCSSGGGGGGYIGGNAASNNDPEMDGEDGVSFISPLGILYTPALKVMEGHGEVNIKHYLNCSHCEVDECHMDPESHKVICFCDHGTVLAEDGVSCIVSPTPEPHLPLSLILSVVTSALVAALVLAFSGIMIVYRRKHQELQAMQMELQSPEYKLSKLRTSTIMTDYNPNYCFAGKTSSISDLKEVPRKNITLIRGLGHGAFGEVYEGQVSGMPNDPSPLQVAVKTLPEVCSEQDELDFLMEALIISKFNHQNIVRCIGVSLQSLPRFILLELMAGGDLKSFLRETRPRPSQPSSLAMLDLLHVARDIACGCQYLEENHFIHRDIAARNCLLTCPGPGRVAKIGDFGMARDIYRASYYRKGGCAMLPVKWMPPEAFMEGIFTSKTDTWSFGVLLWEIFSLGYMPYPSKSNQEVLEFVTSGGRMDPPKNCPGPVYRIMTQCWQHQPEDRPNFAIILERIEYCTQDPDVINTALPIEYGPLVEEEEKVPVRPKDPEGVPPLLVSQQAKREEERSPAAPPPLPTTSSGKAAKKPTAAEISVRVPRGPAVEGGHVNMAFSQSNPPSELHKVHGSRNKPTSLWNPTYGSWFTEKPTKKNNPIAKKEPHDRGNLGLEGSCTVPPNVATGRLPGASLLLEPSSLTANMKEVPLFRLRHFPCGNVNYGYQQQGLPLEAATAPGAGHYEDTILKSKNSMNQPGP
Vascular endothelial growth factor receptor 1 (Homo sapiens), sequence (P17948 whole entry): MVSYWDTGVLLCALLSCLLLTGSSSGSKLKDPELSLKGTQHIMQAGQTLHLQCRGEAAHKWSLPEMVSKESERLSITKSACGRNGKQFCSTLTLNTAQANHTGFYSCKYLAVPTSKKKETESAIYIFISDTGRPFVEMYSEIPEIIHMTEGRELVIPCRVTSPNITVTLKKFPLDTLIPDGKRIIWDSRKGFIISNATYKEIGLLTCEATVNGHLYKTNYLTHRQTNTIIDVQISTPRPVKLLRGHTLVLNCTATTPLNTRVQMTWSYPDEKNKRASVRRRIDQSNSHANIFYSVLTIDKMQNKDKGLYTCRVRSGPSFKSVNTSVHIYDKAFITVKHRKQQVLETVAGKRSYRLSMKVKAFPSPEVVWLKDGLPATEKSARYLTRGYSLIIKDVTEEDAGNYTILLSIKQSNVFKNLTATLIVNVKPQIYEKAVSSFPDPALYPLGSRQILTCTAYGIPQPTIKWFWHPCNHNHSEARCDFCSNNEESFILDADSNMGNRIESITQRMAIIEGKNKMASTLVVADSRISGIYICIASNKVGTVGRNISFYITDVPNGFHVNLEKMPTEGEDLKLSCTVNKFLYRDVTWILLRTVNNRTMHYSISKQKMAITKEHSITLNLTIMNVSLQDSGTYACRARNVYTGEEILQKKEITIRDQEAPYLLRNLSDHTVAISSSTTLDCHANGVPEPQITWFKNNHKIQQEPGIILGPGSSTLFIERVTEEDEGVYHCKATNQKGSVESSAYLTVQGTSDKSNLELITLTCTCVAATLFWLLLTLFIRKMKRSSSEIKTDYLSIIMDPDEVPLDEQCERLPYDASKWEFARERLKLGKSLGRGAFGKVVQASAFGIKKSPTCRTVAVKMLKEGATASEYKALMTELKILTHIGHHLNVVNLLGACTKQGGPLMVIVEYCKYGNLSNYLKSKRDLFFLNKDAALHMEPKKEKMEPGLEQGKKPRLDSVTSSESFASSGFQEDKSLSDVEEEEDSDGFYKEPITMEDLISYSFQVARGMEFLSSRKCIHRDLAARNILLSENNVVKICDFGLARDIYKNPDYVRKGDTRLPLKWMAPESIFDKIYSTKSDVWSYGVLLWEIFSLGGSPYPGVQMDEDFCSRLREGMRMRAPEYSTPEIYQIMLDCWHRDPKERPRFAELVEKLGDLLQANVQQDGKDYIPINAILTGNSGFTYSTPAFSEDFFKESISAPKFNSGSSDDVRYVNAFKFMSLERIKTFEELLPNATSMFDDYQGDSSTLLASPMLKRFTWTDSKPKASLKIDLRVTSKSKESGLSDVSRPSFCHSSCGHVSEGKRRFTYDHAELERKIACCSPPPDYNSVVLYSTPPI

Compound `C=CC(=O)Nc1cccc(C(=O)Nc2ccc(Nc3cc(-c4[nH]c(SC)nc4C)ccn3)cc2)c1` registered a % of control in assay [1] of 93%.
For `CN(C)C/C=C/C(=O)Nc1ccc(C(=O)N2CCCC(Nc3ncc(Cl)c(-c4c[nH]c5ccccc45)n3)C2)cc1` (stereo unspecified), the % of control in assay [2] was 100%.
Compound `COc1cc(Nc2nc(C)cc(-c3cnn4nc(OC)ccc34)n2)cc(C(F)(F)F)c1` registered a % of control in assay [3] of 100%.
Consider `Cc1cc(F)c(C(=O)Nc2cccc(-c3nncn3C(C)C)n2)cc1-n1cnc(C2CC2)c1`, for which the % of control in assay [4] was determined as 100%.
With `CNC(=O)Nc1ccc(-c2nc(N3CC4CCC(C3)O4)c3cnn(C4CCC5(CC4)OCCO5)c3n2)cc1`, in assay [5], the % of inhibition turned out to be 8%. Moreover, the % of control in assay [6] is 100%.

Source of the values: ChEMBL document CHEMBL5465560, “Selectivity Literature for EUbOPEN Chemogenomic Library” (2024).
